The text below walks through data of patent publication US20250120941A1, “Composition for Promoting the Assimilation of an Oligosaccharide” (MORINAGA MILK INDUSTRY CO., LTD., priority 2021, published 2025).

Molecules are shown by their SMILES.

The subject of experiment [1] is bifidobacterial strains in infant fecal samples (feces A, feces B). As to the kind of experiment: Fecal culture: bifidobacterial count by quantitative PCR (Test Example 3). The experiment is classed as cell-based, human infant. The settings on record: after seven hours of culture, group without tocopherols = 1. As to the method:
The feces A and the feces B prepared in Test Example 1 described above were used as fecal samples.
To imitate the environment of the large intestine, a culture experiment was conducted by the following procedures. Bio Jr. 8 100 mLx8 culture apparatus (BJR-25NA1S-8M manufactured by Biott Corporation) was used, and the operations were according to the instructions of the device. The medium components except for the tocopherols and the oligosaccharides were dissolved in purified water and sterilized in an autoclave, and the tocopherols and the oligosaccharides which were dissolved in dimethyl sulfoxide (DMSO, FUJIFILM Wako Pure Chemical Corporation) and in purified water, respectively, and which were then sterilized with a filter were added to the mixture after the autoclave treatment. The culture temperature was 37° C., and the anaerobic condition was maintained during the culture period by blowing filter-sterilized CO2 into the culture vessels. After adjusting the pH to 7.0, 100 μL (10 mg in terms of feces) of the fecal samples, which were diluted with physiological saline, were added, and anaerobic culture was started. To imitate the pH in the large intestine of an infant, the pH was controlled by neutralizing with 1M Na2CO3 when the pH became lower than 5.5 during the culture period. The media were collected 7 hours after starting the culture and centrifuged at 8000 rpm for 3 min at 4° C., and the supernatants and the precipitates were collected.
Using GENE PREP STAR PI-480 automated isolation system (Kurabo Industries Ltd. Japan), DNA was extracted from the precipitates collected in (2). Using the extracted DNA as templates and using the primers of SEQ ID NO: 1 (ctcctggaaacgggtgg) and SEQ ID NO: 2 ([…]), quantitative PCR was conducted with Applied Bio systems 7500 Fast & 7500 Real-Time PCR System (manufactured by Thermo Fisher), and the bacterial counts of bifidobacterial strains were measured. The PCR conditions were 40 cycles of denaturation at 95° C. for 5 seconds, subsequent annealing at 55° C. for 20 seconds and elongation at 72° C. for 30 seconds.
The bacterial counts of bifidobacterial strains after seven hours of culture, which were measured by the quantitative PCR, are shown in Table 5. The bacterial counts are the relative values where the bacterial counts of the groups without the addition of the tocopherols are regarded as 1.

Experiment [2] deals with intestinal bacteria of infant fecal sample (feces B). As to the kind of experiment: Fecal culture: oligosaccharide residual rate in culture supernatant (Test Example 1). Type of experiment: cell-based, human infant. As to the method: Fecal samples were obtained from two healthy infants (feces A from an infant and feces B from an infant). The samples were collected immediately after the defecation and immediately moved to 10° C. or lower under an anaerobic condition. The collected feces were diluted with 10 times the amount of physiological saline within eight hours of the defecation and stored at −80° C. until use.
To imitate the environment of the large intestine, a culture experiment was conducted by the following procedures. Bio Jr. 8 100 mLx8 culture apparatus (BJR-25NA1S-8M manufactured by Biott Corporation) was used, and the operations were according to the instructions of the device. The medium components except for the tocopherols and the oligosaccharides were dissolved in purified water and sterilized in an autoclave. The tocopherols and the oligosaccharides which were dissolved in dimethyl sulfoxide (DMSO, FUJIFILM Wako Pure Chemical Corporation) and in purified water, respectively, and which were then sterilized with a filter were added to the medium after the autoclave treatment. The culture temperature was 37° C., and the anaerobic condition was maintained during the culture period by blowing filter-sterilized CO2 into the culture vessels. […]

As to `C[C@@H]1O[C@@H](O[C@H]2[C@H](O[C@H]3[C@H](O)[C@@H](O)C(O)O[C@@H]3CO)O[C@H](CO)[C@H](O)[C@@H]2O)[C@@H](O)[C@H](O)[C@@H]1O` (stereo partly drawn) [Comparative Example 1, 2′-Fucosyllactose], the “bifidobacterial Count (Relative Value)” value in experiment [1] (Feces A) and in experiment [1] (Feces B) was 1 throughout. Also, the “2′-FL Residual Rate” value in experiment [2] (after 7-hr culture, YCFA medium, before culture = 100) is 114 mass %. Also, the “assimilation of 2′-fucosyllactose (in words)” value in experiment [2] (after seven hours of culture) is “remained in the supernatant without being assimilated”.

In the case of `CC(=O)N[C@H]1[C@H]([C@H](O)[C@H](O)CO)O[C@@](OC[C@H]2O[C@@H](O[C@H]3[C@H](O)[C@@H](O)[C@H](O)O[C@@H]3CO)[C@H](O)[C@@H](O)[C@H]2O)(C(=O)O)C[C@@H]1O` [Comparative Example 9, 6′-Sialyllactose], the “bifidobacterial Count (Relative Value)” value in experiment [1] (Feces A) and in experiment [1] (Feces B) was 1 each time.
